From US5998453A, “Oxazolidinone compounds and pharmaceutical preparation containing them” (Schering Aktiengesellschaft, priority 1984, dated 1999) come the findings set out here.

In the assay the test system is weight increase caused by croton oil. In words: rat ear test according to Tonelli (croton oil), topical anti-inflammatory activity. The assay is classed as in vivo, Wistar rats. The settings on record: 5 hours after treatment.
For orientation: ED50 means the dose that gives a 50% effect, or the effect in half of the subjects. Low values mean greater potency, high ones weaker potency. `CCCC(=O)OC1(C(=O)CO)CCC2C3CCC4=CC(=O)CCC4(C)C3C(O)CC21C` (stereo not drawn) [Compound 3, Hydrocortisone 17-butyrate] displayed an ED50 of 0.5 mg/kg. Under `O=C(O)COc1nn(Cc2ccccc2)c2ccccc12` [Compound 2, Bendazac] stands 15 mg/kg; under `COc1ccc(C2CNC(=O)C2)cc1OC1CCCC1` (stereo not drawn) [Compound 4, 4-(3-Cyclopentyloxy-4-methoxyphenyl)-2-pyrrolidone], 0.6 mg/kg; under `COc1ccc(C2CNC(=O)C2)cc1OC1CCOC1` (stereo not drawn) [Compound 5, 4-[4-Methoxy-3-(3-tetrahydrofuryloxy)phenyl]-2-pyrrolidone], 0.2 mg/kg. As for `COc1ccc(C2CNC(=O)C2)cc1OCC(C)C` (stereo not drawn) [Compound 6, 4-(3-Isobutoxy-4-nmethoxypheny1)-2-pyrrolidone], the ED50 worked out at 1.1 mg/kg. The result for `CCCCOc1ccc(CC(=O)NO)cc1` [Compound 1, Bufexamac] reads 15 mg/kg.
